From PMC5904360, “Soluble N-Ethylmaleimide-Sensitive Factor Attachment Protein Receptor-Derived Peptides for Regulation of Mast Cell Degranulation” (Frontiers in Immunology, 2018)

Experiments:
[1] = target: T1, SN23-Syn4-Vp2 SNARE complex (Rattus norvegicus, UniProt O70377+P63045+Q08850); test: SNARE-driven membrane fusion (total lipid mixing) assay with proteoliposomes; assay type: biochemical; conditions: for inhibition of membrane fusion (lipid mixing): inhibitor applied to T-vesicles, T:V 9:1, 37°C, NBD dequenching, Vp2S/Vp8S at 10 µM, three independent experiments (Figure 3B-D); for inhibition of membrane fusion, peptide added after preincubation: peptide added after preincubation of T- and V-liposomes at 4°C overnight (partially zippered SNAREs) (Figure 4A); for inhibition of membrane fusion, peptide added before preincubation: peptide added before preincubation of T- and V-liposomes at 4°C overnight (Figure 4A)
T1 construct: Syn4 (amino acids 1–298); SNAP-23 (amino acids 1–210); full-length VAMP2 (VpF, amino acids 1–116); GST (N, cleaved yes); made in house; host or cells: Escherichia coli Rosetta(DE3)pLysS
T1 sequence (Q08850 whole entry, the tested form may be a part): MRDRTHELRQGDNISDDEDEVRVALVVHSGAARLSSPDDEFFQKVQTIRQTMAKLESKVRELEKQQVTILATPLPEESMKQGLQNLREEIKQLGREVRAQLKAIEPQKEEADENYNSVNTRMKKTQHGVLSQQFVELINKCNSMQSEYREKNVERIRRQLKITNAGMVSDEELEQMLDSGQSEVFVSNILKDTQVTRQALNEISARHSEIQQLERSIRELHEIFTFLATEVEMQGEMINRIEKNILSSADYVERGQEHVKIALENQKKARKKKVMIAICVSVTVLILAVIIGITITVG
T1 sequence (O70377 whole entry, the tested form may be a part): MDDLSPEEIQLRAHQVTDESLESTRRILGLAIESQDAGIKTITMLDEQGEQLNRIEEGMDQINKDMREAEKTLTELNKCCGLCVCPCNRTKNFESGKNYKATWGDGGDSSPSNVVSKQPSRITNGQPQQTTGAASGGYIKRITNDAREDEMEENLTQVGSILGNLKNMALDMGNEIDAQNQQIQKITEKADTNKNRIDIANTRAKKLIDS
T1 sequence (P63045 whole entry, the tested form may be a part): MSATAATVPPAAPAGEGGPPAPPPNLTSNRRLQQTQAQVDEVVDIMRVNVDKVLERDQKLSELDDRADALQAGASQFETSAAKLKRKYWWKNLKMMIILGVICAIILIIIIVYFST
Excerpt: Total RNA was obtained from RBL-2H3 cells using TRIzol® Reagent (#15596026, Invitrogen, Carlsbad, CA, USA) and served as a template for cDNA synthesis with M-MLV reverse transcriptase (M1705, Promega, Madison, WI, USA) according to the manufacturer’s protocol. The cDNAs amplified for rat Syn4, SNAP-23, VAMP2, VAMP4, VAMP7, and VAMP8 using each primer pair ([4]), were cloned into the pGEX-4T 1 vector. The mast cell SNARE proteins [Syn4 (amino acids 1–298), SNAP-23 (amino acids 1–210), full-length VAMP2 (VpF, amino acids 1–116), VAMP4 (amino acids 1–141), and VAMP8 (amino acids 1–100)] were expressed in Escherichia coli Rosetta(DE3)pLysS (#70956, Novagen, Darmstadt, Germany) and purified as glutathione-S-transferase-tagged fusion proteins as reported previously ([8]).
To prepare the unilamellar liposomes, a 50-mM lipid mixture of palmitoyl-2-oleoylphosphatidylcholine (POPC) (#850457, Avanti Polar Lipids, Alabaster, AL, USA):1,2-dioleoyl-phosphatidylserine (DOPS) (#840035, Avanti Polar Lipids) at 65:35 mol% was dried in a glass tube under a gentle stream of nitrogen gas and then exposed to a vacuum overnight. The resultant lipid film was resuspended in dialysis buffer (25 mM HEPES and 100 mM KCl, pH 7.4) by vortexing, followed by an extrusion step with polycarbonate membrane filters having a pore size of 100 nm (#610005, Avanti Polar Lipids). To prepare proteoliposomes, binary T-SNAREs, which were pre-formed by mixing Syn4 and SNAP-23 at room temperature for 60 min, were incubated with 50 mM unilamellar liposomes for 15 min at the same temperature, resulting in a 50:1 lipid/protein molar ratio ([9]).
For the preparation of V-SNARE proteoliposomes, a 10-mM premixed lipid solution [POPC:DOPS:N-(7-nitro-2-1,3-benzoxadiazol-4-yl (NBD))-phosphatidylserine (#810198, Avanti Polar Lipids):[…] (#810150, Avanti Polar Lipids) = 62:35:1.5:1.5 (molar ratio)] was used for the preparation of fluorescent liposomes in the same manner as above. The prepared liposomes were then mixed with VAMP2 for 15 min at room temperature. The liposome/protein mixture was diluted twice to bring the concentration of n-octyl glucoside (O8001, Sigma-Aldrich) below the critical micelle concentration. After overnight dialysis against 1L dialysis buffer at 4°C to remove the detergent, SM-2 bio-beads (#1523920, Bio-Rad Laboratories, Hercules, CA, USA) were added to the sample to remove any remaining n-octyl glucoside. The solution was then centrifuged at 10,000 × g to remove the protein/lipid aggregates, and the final lipid concentrations of both the T- and V-liposomes were adjusted to 1 mM with a lipid-to-protein ratio of 50:1.
A total lipid mixing assay using the T- and V-liposomes was performed as described previously with minor modifications ([8]). […] The fusion was monitored using the dequenching of NBD fluorescence signal (excitation 465 nm/emission 530 nm). After at least 80 min of fusion, the maximum NBD signal was obtained by adding 0.1% Triton X-100™. All the lipid-mixing experiments were performed at 37°C.

SN23-Syn4-Vp2 complex = target: T2, SN23-Syn4-Vp2 complex (Rattus norvegicus, UniProt O70377+P63045+Q08850); test: Co-immunoprecipitation of SNARE complexes in activated RBL-2H3 cells, anti-SNAP-23 blot; assay type: cell-based; conditions: peptides added to the medium after A23187 pretreatment; IP of Vp2, blot anti-SNAP-23 (Figure 4C)
T2 construct: Lysates of RBL-2H3 cells; endogenous in cells; host or cells: RBL-2H3 (ATCC CRL-2256)
T2 sequence (Q08850 whole entry): as the sequence (Q08850 whole entry, the tested form may be a part) above
T2 sequence (O70377 whole entry): as the sequence (O70377 whole entry, the tested form may be a part) above
T2 sequence (P63045 whole entry): as the sequence (P63045 whole entry, the tested form may be a part) above

RBL-2H3 mast cells = test: Degranulation assay, histamine release (enzyme immunoassay); assay type: cell-based, rat; conditions: for inhibition of histamine release: PTD-conjugated peptide without SLO (LY294002 as positive control), DNP-IgE sensitized, DNP-BSA stimulation, no A23187 pretreatment, three independent experiments (Figure 2C); for inhibition of histamine release after A23187 pretreatment: cells pretreated with A23187, sensitized with DNP-IgE, then PTD-conjugated peptide (Figure 4B)

Sequence | inhibition of membrane fusion (lipid mixing) [1] | inhibition of membrane fusion, peptide added after preincubation [1] | inhibition of membrane fusion, peptide added before preincubation [1] | SNARE complex formation in cells (amount of SN23-Syn4-Vp2 complex) (SN23-Syn4-Vp2 complex) | inhibition of histamine release (RBL-2H3 mast cells) | inhibition of histamine release after A23187 pretreatment (RBL-2H3 mast cells)
EDEMEENLTQVGSILGN [SC23N, 17-mer peptide, N-terminal region of SNAP-23 SNARE motif SC23] | inhibited membrane fusion by both the SN23-Syn4-Vp2 and SN23-Syn4-Vp8 complexes | inhibitory activities significantly diminished | inhibited the membrane fusion induced by both SN23-Syn4-Vp2 and SN23-Syn4-Vp8 | reduced | – | –
LQSEVEGVKNIMTQNVE [Vp8N, 17-mer peptide, N-terminal region of VAMP8 SNARE motif] | – | – | – | – | almost equally inhibited the release of both β-hexosaminidase and histamine | inhibited both histamine and β-hexosaminidase release
SARHSEIQQLERTIREL [Syn4N, 17-mer peptide, N-terminal region of syntaxin 4 SNARE motif] | inhibited membrane fusion by both the SN23-Syn4-Vp2 and SN23-Syn4-Vp8 complexes | inhibitory activities significantly diminished | inhibited the membrane fusion induced by both SN23-Syn4-Vp2 and SN23-Syn4-Vp8 | reduced | almost equally inhibited the release of both β-hexosaminidase and histamine | inhibited both histamine and β-hexosaminidase release
